These results are taken from patent US7358276B2, “2-Oxo-1-pyrrolidine derivatives, processes for preparing them and their uses” (UCB, S.A., priority 2000, dated 2008).

Data set [1] concerns the target T1, Levetiracetam Binding Site (LBS), rat cerebral cortex membranes (Rattus norvegicus, UniProt Q02563).
T1 construct: The crude membrane pellet obtained is resuspended in 50 mmol/l Tris-HCl (pH 7.4); from tissue; host or cells: rat cerebral cortex crude membranes (male Sprague-Dawley)
The experiment in a line: LBS binding assay (competitive binding, [3H]-2-[4-(3-azidophenyl)-2-oxo-1-pyrrolidinyl]butanamide). As to conditions: 4° C., 120 min.

Data set [2] deals with audiogenic seizures in sound-susceptible mice. The experiment in a line: Animal model of sound-susceptible mice (audiogenic seizures). It counts as in vivo. The conditions noted are these: intraperitoneally 60 minutes before induction of audiogenic seizures; doses given in mol/kg. From the text:
The activity of the compounds of formula I, or their pharmaceutically acceptable salts, as anticonvulsants can be determined in the audiogenic seizures model. The objective of this test is to evaluate the anticonvulsant potential of a compound by means of audiogenic seizures induced in sound-susceptible mice, a genetic animal model with reflex seizures. In this model of primary generalised epilepsy, seizures are evoked without electrical or chemical stimulation and the seizure types are, at least in part, similar in their clinical phenomenology to seizures occurring in man (Löscher W. & Schmidt D., Epilepsy Res. (1998), 2, p. 145-181; Buchhalter J. R., Epilepsia (1993), 34, S31-S41). Results obtained with compounds of formula I are indicative of a strong pharmacological effect.
The objective of this test is to evaluate the anticonvulsant potency of a compound in sound-susceptible mice, a genetic animal model with reflex seizures. In this model of primary generalised epilepsy, seizures are evoked without electrical or chemical stimulation and the seizure types are, at least in part, similar in their clinical phenomenology to seizures occuring in man (Löscher W. & Schmidt D., Epilepsy Res. (1998), 2, 145-181; Buchhalter J. R., Epilepsia (1993), 34, S31-S41).
Male or female genetically sound-sensitive mice (14-28 g; N=10), derived from a DBA strain originally selected by Dr. Lehmann of the Laboratory of Acoustic Physiology (Paris) and bred in the UCB Pharma Sector husbandry unit since 1978, are used. The experimental design consisted of several groups, one group receiving the vehicle control and the other groups different doses of the test-compound. The compounds are administered intraperitoneally 60 minutes before the induction of audiogenic seizures.
For testing, the animals are placed in small cages, one mouse per cage, in a sound-attenuated chamber. After a period of orientation of 30 seconds, the acoustic stimulus (90 dB, 10-20 kHz) is delivered for 30 seconds via loudspeakers positioned above each cage. During this interval, the mice are observed and the presence of the 3 phases of the seizure activity namely wild running, clonic and tonic convulsions, is recorded. The proportion of mice protected against wild running, clonic and tonic convulsions, respectively, is calculated.
For active compounds, an ED50 value, i.e. the dose producing 50% protection relative to the control group, together with 95% confidence limits, was calculated using a Probit Analysis (SAS/STAT® Software, version 6.09, PROBIT procedure) of the proportions of protected mice for each of the 3 phases of the seizure activity.

The conditions of data set [3]: A. J. GOWER et al., Eur. J. Pharmacol., 222, (1992), 193-203; cited from earlier work.

SMILES strings stand for the structures.

T1 sequence (Q02563 whole entry): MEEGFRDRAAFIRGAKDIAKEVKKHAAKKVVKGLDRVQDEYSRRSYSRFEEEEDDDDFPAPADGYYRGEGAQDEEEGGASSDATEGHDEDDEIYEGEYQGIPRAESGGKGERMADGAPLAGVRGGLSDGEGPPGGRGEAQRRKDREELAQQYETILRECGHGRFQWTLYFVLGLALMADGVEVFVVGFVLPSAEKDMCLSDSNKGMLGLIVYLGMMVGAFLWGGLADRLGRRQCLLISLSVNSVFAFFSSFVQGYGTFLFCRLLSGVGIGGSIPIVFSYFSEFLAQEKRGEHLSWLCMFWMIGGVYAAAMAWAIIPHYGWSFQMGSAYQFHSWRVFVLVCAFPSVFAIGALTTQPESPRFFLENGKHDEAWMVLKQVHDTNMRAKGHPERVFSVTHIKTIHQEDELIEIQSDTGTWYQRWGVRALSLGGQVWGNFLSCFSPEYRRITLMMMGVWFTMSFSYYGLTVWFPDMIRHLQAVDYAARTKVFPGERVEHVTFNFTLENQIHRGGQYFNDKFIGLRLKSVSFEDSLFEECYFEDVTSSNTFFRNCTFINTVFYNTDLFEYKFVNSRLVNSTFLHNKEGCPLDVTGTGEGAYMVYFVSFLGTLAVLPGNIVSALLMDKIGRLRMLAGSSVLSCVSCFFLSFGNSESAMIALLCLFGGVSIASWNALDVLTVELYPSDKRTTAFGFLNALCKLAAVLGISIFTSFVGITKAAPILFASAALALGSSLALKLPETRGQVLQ

As a reminder, the melting point is the temperature of the solid-liquid transition. Turning to `CCC(C(N)=O)N1CC(c2ccc(Cl)c(Cl)c2)CC1=O` (centres unmarked) [Compound 200], the melting point was determined as 154.4 °C. The “pKi (affinity for the levetiracetam binding site)” value (from here on “pKi”) in data set [1] was “Particular affinity”. The “ED50 (dose producing 50% protection against audiogenic seizures)” value in data set [2] was “Particularly promising activity”.
Consider `CC[C@@H](C(=O)NC)N1CC(CI)CC1=O` (stereo partly drawn) [Compound 146, (2S)-2-[4-(iodomethyl)-2-oxo-1-pyrrolidinyl]-N-methylbutanamide], for which the melting point turned out to be 66.6 °C. Besides, the “pKi” value in data set [1] is reported as “Particular affinity”. Also, in data set [2], the “ED50 (dose producing 50% protection against audiogenic seizures)” value was “Particularly promising activity”.
Compound `CC[C@@H](C(N)=O)N1CC(c2ccccc2)CC1=O` (some centres unmarked) [Compound 23] had a melting point of 92.4 °C. Further, the “pKi” value in data set [1] is “Particular affinity”. Further, the “ED50 (dose producing 50% protection against audiogenic seizures)” value in data set [2] was “Particularly promising activity”.
In turn, `C=CCC1CC(=O)N([C@@H](CC)C(N)=O)C1` (stereo partly drawn) [Compound 228, (2S)-2-(4-allyl-2-oxo-1-pyrrolidinyl)butanamide] had a melting point of 58.3 °C. Besides, the “pKi” value in data set [1] is on record as “Particular affinity”. For the same compound, the “ED50 (dose producing 50% protection against audiogenic seizures)” value in data set [2] was “Particularly promising activity”.
Turning to `CC[C@@H](C(N)=O)N1CC(CI)CC1=O` (stereo partly drawn) [Compound 10, (2S)-2-[4-(iodomethyl)-2-oxo-1-pyrrolidinyl]butanamide], the melting point was found to be 91.4 °C. Besides, in data set [1], the “pKi” value is listed as “Particular affinity”. Also, in data set [2], the “ED50 (dose producing 50% protection against audiogenic seizures)” value is listed as “Particularly promising activity”.
`CCC(C(N)=O)N1CC(CCCc2ccccc2)CC1=O` (centres unmarked) [Compound 197]: the melting point turned out to be 92.5 °C. Moreover, in data set [1], the “pKi” value is “Particular affinity”. In addition, the “ED50 (dose producing 50% protection against audiogenic seizures)” value in data set [2] is “Particularly promising activity”.
In turn, `CCCC1(C)CC(=O)N([C@@H](CC)C(N)=O)C1` (some centres unmarked) [Compound 250] showed a melting point of 133.3 °C. Also, the “pKi” value in data set [1] is recorded as “Particular affinity”. In data set [2], the “ED50 (dose producing 50% protection against audiogenic seizures)” value was “Particularly promising activity”.
`CCC(C(N)=O)N1CC(c2ccccc2F)CC1=O` (centres unmarked) [Compound 209]: the melting point came to 123.7 °C. Also, in data set [1], the “pKi” value is “Particular affinity”. Besides, in data set [2], the “ED50 (dose producing 50% protection against audiogenic seizures)” value is reported as “Particularly promising activity”.
Turning to `CC[C@@H](C(N)=O)N1CCCC1=O` [Levetiracetam, (S)-α-ethyl-2-oxo-1-pyrrolidine acetamide], in data set [3], the “activity in the treatment of epilepsy” value is listed as “effective in the treatment of epilepsy”.
With `CC[C@@H](C(N)=O)N1CC(c2ccc(N=[N+]=[N-])cc2)CC1=O` (some centres unmarked) [Compound 81], the melting point was determined as 91.4 °C. The “pKi” value in data set [1] is reported as “Particular affinity”. In addition, the “ED50 (dose producing 50% protection against audiogenic seizures)” value in data set [2] is reported as “Particularly promising activity”.
The corresponding values for `CCC(C(N)=O)N1CC(c2cccc(C)c2)CC1=O` (centres unmarked) [Compound 219] are 79.4 °C, “Particular affinity” and “Particularly promising activity”.
The corresponding values for `CCC(C(N)=O)N1CC(c2ccc(Cl)cc2Cl)CC1=O` (centres unmarked) [Compound 188] are 154.7 °C, “Particular affinity” and “Particularly promising activity”.
On the same counts, the results for `CCC(C(N)=O)N1CC(c2cccnc2)CC1=O` (centres unmarked) [Compound 96] are 104.3 °C, “Particular affinity” and “Particularly promising activity”.
As for `CC[C@@H](C(N)=O)N1CC(CN=[N+]=[N-])CC1=O` (stereo partly drawn) [Compound 32, (2S)-2-[4-(azidomethyl)-2-oxo-1-pyrrolidinyl]butanamide], the melting point stood at 84.8 °C. Besides, the “pKi” value in data set [1] is on record as “Particular affinity”. Also, in data set [2], the “ED50 (dose producing 50% protection against audiogenic seizures)” value was “Particularly promising activity”.
As to `CCC(C(N)=O)N1CC(c2ccccc2F)CC1=O` (centres unmarked) [Compound 211], the melting point was 150.9 °C. Besides, the “pKi” value in data set [1] was “Particular affinity”. Moreover, the “ED50 (dose producing 50% protection against audiogenic seizures)” value in data set [2] is listed as “Particularly promising activity”.
Regarding `CC[C@H](C(N)=O)N1CCCC1=O` [(R)-α-ethyl-2-oxo-1-pyrrolidine acetamide], the “activity in the treatment of epilepsy” value in data set [3] is “completely lacks activity”.
Take `CC[C@@H](C(N)=O)N1CC(CC(C)=O)CC1=O` (some centres unmarked) [Compound 229]: the melting point came out at 90.6 °C. In data set [1], the “pKi” value is listed as “Particular affinity”. For the same compound, in data set [2], the “ED50 (dose producing 50% protection against audiogenic seizures)” value is on record as “Particularly promising activity”.
On the same counts, the results for `C=CCC1CC(=O)N([C@@H](CC)C(N)=O)C1` (stereo partly drawn) [Compound 224, (2S)-2-(4-allyl-2-oxo-1-pyrrolidinyl)butanamide] are 69.2 °C, “Particular affinity” and “Particularly promising activity”.
The corresponding values for `CCC(C(N)=O)N1CC(/C=C\F)CC1=O` (centres unmarked) [Compound 162] are 105 °C, “Particular affinity” and “Particularly promising activity”.
On the same counts, the results for `CC[C@@H](C(N)=O)N1CC(c2cc(Br)cc(Br)c2)CC1=O` (some centres unmarked) [Compound 198] are 118.6 °C, “Particular affinity” and “Particularly promising activity”.
Take `CCC(C(N)=O)N1CC(C=C(Br)Br)CC1=O` (centres unmarked) [Compound 33]: the melting point turned out to be 134.8 °C. In addition, the “pKi” value in data set [1] was “Particular affinity”. The “ED50 (dose producing 50% protection against audiogenic seizures)” value in data set [2] is recorded as “Particularly promising activity”.
Compound `CC[C@@H](C(N)=O)N1CC(c2cccc(N=[N+]=[N-])c2)CC1=O` (some centres unmarked) [Compound 87] had a melting point of 98 °C. In addition, the “pKi” value in data set [1] is “Particular affinity”. Besides, the “ED50 (dose producing 50% protection against audiogenic seizures)” value in data set [2] is on record as “Particularly promising activity”.
